US9951068B2 (Proximagen Limited, priority 2013, dated 2018)
pIC50: −log10 of the molar value. Counter-ions that a name gives are not always drawn.

Tests used:
[1] = molecular target: human ether a go-go related gene (hERG) K+ channel (Homo sapiens (Human), UniProt Q12809); assay: hERG assay, IonWorks patch clamp electrophysiology; type: cell-based; details: Chinese Hamster Lung cell line stably expressing hERG; max assay concentration 11 uM
Procedure: Compounds of the invention were tested for inhibition of the human ether a go-go related gene (hERG) K^+ channel using IonWorks patch clamp electrophysiology. 8 Point concentration-response curves were generated on two occasions using 3-fold serial dilutions from the maximum assay concentration (11 uM). Electrophysiological recordings were made from a Chinese Hamster Lung cell line stably expressing the full length hERG channel. Single cell ion currents were measured in the perforated patch clamp configuration (100 ug/mL amphoterocin) at room temperature using an IonWorks Quattro instrument. The internal solution contained 140 mM KCl, 1 mM MgCl2, 1 mM EGTA and 20 mM HEPES and was buffered to pH 7.3. The external solution contained 138 mM NaCl, 2.7 mM KCl, 0.9 mM CaCl2, 0.5 mM MgCl2, 8 mM Na2HPO4 and 1.5 mM KH2PO4, and was buffered to pH 7.3. […] This sequence was repeated 5 times at a frequency of 0.25 Hz. Currents were measured from the tail step at the 5th pulse, and referenced to the holding current. Compounds were incubated for 6-7 min prior to a second measurement of the hERG signal using an identical pulse train. […] A control compound (quinidine) was used (see Table 20 below).

[2] = molecular target: purified recombinantly expressed human SSAO (Homo sapiens (Human), UniProt Q16853); assay: SSAO enzyme inhibition assay (HRP-coupled hydrogen peroxide detection or 14C-benzaldehyde detection, benzylamine substrate); type: biochemical; details: SSAO inhibitory activity, human recombinant SSAO, RT
Procedure: All primary assays were performed at RT. with purified recombinantly expressed human SSAO. Enzyme was prepared essentially as described in Öhman et al. (Protein Expression and Purification 46 (2006) 321-331). In addition, secondary- and selectivity assays were performed using SSAO prepared from various tissues or purified rat recombinant SSAO. The enzyme activity was assayed with benzylamine as substrate by measuring either benzaldehyde production, using ^14C-labeled substrate, or by utilizing the production of hydrogen peroxide in a horseradish peroxidase (HRP) coupled reaction. Briefly, test compounds were dissolved in dimethyl sulfoxide (DMSO) to a concentration of 10 mM. Dose-response measurements were assayed by either creating 1:10 serial dilutions in DMSO to produce a 7 point curve or by making 1:3 serial dilutions in DMSO to produce 11 point curves.
In a horseradish peroxidase (HRP) coupled reaction, hydrogen peroxide oxidation of 10-acetyl-3,7-dihydroxyphenoxazine produced resorufin, which is a highly fluorescent compound (Zhout and Panchuk-Voloshina. Analytical Biochemistry 253 (1997) 169-174; Amplex® Red Hydrogen Peroxide/peroxidase Assay kit, Invitrogen A22188). Enzyme and compounds in 50 mM sodium phosphate, pH 7.4 were set to pre-incubate in flat-bottomed microtiter plates for approximately 15 min before initiating the reaction by addition of a mixture of HRP, benzylamine and Amplex reagent. Benzylamine concentration was fixed at a concentration corresponding to the Michaelis constant, determined using standard procedures. Fluorescence intensity was then measured at several time points during 1-2 h, exciting at 544 nm and reading the emission at 590 nm. For the human SSAO assay final concentrations of the reagents in the assay wells were: SSAO enzyme 1 ug/ml, benzylamine 100 uM, Amplex reagent 20 uM, HRP 0.1 U/mL and varying concentrations of test compound. The inhibition was measured as % decrease of the signal compared to a control without inhibitor (only diluted DMSO). The background signal from a sample containing no SSAO enzyme was subtracted from all data points. Data was fitted to a four parameter logistic model and IC50 values were calculated using the GraphPad Prism 4 or XLfit 4 programs.
SSAO activity was assayed using 14C-labeled benzylamine and analysed by measuring radioactive benzaldehyde. In a white 96-well optiplate (Packard), 20 uL of diluted test compound was pre-incubated at room temperature with 20 uL SSAO enzyme for approximately 15 min with continuous agitation. All dilutions were made with PBS. The reaction was initiated by adding 20 uL of the benzylamine substrate solution containing [7-14C] Benzylamine hydrochloride (CFA589, GE Healthcare). The plate was incubated for 1 h as above after which the reaction was stopped by acidification (10 uL 1M aq HCl). Then 90 uL Micro Scint-E solution (Perkin-Elmer) was added to each well and the plate was continuously mixed for 15 min. Phase separation occurred instantly and activity was read in a Topcount scintillation counter (Perkin-Elmer). In the final reaction well, the human recombinant SSAO concentration was 10 ug/ml. In order to optimize sensitivity, the substrate concentration was decreased as compared to the HRP coupled assay in order to get a higher fraction of radioactive product. In the human SSAO assay, benzylamine concentration was 40 uM (0.2 uCi/mL). Data was analysed as above.

Sequence of human ether a go-go related gene (hERG) K+ channel (Q12809 whole entry): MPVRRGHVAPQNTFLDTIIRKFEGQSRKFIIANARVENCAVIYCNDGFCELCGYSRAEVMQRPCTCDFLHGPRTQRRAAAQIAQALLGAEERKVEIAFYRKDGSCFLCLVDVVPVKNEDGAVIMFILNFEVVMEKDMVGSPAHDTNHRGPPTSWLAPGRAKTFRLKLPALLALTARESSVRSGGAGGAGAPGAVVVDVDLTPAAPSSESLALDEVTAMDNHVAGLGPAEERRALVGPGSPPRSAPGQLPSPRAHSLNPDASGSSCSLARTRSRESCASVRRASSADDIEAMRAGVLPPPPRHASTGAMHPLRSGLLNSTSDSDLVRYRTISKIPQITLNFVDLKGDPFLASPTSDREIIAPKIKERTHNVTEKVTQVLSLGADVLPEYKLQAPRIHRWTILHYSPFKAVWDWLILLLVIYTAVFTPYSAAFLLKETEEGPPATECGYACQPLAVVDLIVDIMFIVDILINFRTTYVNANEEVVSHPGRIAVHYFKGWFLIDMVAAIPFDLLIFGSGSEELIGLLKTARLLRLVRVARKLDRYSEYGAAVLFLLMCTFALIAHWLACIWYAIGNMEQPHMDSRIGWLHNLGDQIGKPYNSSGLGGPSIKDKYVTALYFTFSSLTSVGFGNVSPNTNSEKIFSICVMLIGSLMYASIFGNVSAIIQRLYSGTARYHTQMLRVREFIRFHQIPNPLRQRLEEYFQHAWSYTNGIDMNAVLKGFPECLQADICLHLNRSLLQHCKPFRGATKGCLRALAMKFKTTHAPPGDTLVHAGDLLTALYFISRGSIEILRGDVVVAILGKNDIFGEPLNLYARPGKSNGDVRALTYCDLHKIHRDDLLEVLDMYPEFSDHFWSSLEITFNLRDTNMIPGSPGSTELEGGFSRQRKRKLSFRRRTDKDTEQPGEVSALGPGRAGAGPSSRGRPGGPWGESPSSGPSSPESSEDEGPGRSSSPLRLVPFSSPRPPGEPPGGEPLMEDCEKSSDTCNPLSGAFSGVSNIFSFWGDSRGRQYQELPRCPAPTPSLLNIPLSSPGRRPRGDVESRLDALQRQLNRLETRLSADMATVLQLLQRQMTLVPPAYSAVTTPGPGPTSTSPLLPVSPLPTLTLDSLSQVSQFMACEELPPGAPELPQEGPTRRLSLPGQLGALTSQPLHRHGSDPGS
Sequence of purified recombinantly expressed human SSAO (Q16853 29-763): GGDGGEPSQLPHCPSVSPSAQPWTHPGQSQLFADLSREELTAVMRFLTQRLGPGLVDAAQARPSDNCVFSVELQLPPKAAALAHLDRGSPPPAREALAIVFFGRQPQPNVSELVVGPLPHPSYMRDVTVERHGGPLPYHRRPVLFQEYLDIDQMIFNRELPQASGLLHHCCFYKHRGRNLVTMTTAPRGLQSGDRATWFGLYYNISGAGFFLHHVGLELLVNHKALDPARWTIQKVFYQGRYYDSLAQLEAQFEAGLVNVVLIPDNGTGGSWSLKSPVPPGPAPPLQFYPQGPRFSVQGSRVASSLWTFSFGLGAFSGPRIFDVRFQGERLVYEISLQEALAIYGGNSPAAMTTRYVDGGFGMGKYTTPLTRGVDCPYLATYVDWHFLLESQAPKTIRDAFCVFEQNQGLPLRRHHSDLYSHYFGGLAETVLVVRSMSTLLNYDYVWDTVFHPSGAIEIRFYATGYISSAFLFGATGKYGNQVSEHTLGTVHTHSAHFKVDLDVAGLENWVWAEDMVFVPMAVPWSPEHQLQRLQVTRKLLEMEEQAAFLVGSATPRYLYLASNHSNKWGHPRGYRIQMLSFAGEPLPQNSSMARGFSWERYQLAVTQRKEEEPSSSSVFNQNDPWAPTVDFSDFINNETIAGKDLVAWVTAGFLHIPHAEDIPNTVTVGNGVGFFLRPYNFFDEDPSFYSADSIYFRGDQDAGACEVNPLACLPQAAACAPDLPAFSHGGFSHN

Compound	pIC50 [2]	pIC50 [1]
Clc1ccc(-n2c(-c3ccncc3)nc3ccncc32)cc1 [Example 2, 4-[3-(4-Chlorophenyl)-3H-imidazo[4,5-c]pyridin-2-yl]pyridine]		< 5.00
Clc1ccc(-n2c(-c3ccc(CN4CCOCC4)nc3)nc3ccncc32)cc1 [Example 3, 4-({5-[3-(4-Chlorophenyl)-3H-imidazo[4,5-c]pyridin-2-yl]pyridin-2-yl}methyl)morpholine]		< 5.00
O=C1CN(c2ncc(-c3nc4ccncc4n3-c3ccc(F)cc3)cn2)CCN1 [Example 12, 4-{5-[3-(4-Fluorophenyl)-3H-imidazo[4,5-c]pyridin-2-yl]pyrimidin-2-yl}piperazin-2-one]		< 5.00
Clc1ccc(-n2c(-c3cnc(N4CCNCC4)o3)nc3ccncc32)cc1 [Example 18, 1-{5-[3-(4-Chlorophenyl)-3H-imidazo[4,5-c]pyridin-2-yl]-1,3-oxazol-2-yl}piperazine dihydrochloride]		< 5.00
Fc1ccc(-n2c(-c3cnc(NC4CCOCC4)nc3)nc3ccncc32)cc1 [Example 20, 5-[3-(4-Fluorophenyl)-3H-imidazo[4,5-c]pyridin-2-yl]-N-(oxan-4-yl)pyrimidin-2-amine]		< 5.00
Cc1ccc(-n2c(-c3cnc(N4CCOCC4)nc3)nc3ccncc32)c(F)c1 [Example 53, 4-{5-[3-(2-Fluoro-4-methylphenyl)-3H-imidazo[4,5-c]pyridin-2-yl]pyrimidin-2-yl}morpholine]		< 5.00
Fc1ccc(-n2c(-c3ccc(N4CCOCC4)nc3)nc3ccncc32)cc1 [Example 54, 4-{5-[3-(4-Fluorophenyl)-3H-imidazo[4,5-c]pyridin-2-yl]pyridin-2-yl}morpholine]		< 5.00
Fc1ccc(-n2c(-c3ccc(OC4CCOCC4)nc3)nc3ccncc32)cc1 [Example 113, 5-[3-(4-Fluorophenyl)-3H-imidazo[4,5-c]pyridin-2-yl]-2-(oxan-4-yloxy)pyridine]	> 7.30	
O=c1cc(-c2nc3ccncc3n2-c2ccc(F)cc2)ccn1C1CC1 [Example 115, 1-Cyclopropyl-4-[3-(4-fluorophenyl)-3H-imidazo[4,5-c]pyridin-2-yl]-1,2-dihydropyridin-2-one]	> 7.30	
Cc1ccc(-n2c(-c3cnc(N4C[C@@H](C)O[C@@H](C)C4)nc3)nc3ccncc32)cn1 [Example 118, (2R,6S)-2,6-Dimethyl-4-{5-[3-(6-methylpyridin-3-yl)-3H-imidazo[4,5-c]pyridin-2-yl]pyrimidin-2-yl}morpholine]	> 7.30	
Clc1ccc(-n2c(-c3ccccn3)cc3ccncc32)cc1 [Example 121, 2-[1-(4-Chlorophenyl)-1H-pyrrolo[2,3-c]pyridin-2-yl]pyridine]	> 7.30	
Clc1ccc(-n2c(-c3cncnc3)cc3ccncc32)cc1 [Example 123]	> 7.30	
Clc1ccc(-n2c(-c3cnccn3)cc3ccncc32)cc1 [Example 124, 2-[1-(4-Chlorophenyl)-1H-pyrrolo[2,3-c]pyridin-2-yl]pyrazine]	> 7.30	
Cc1nc(C)c(-c2cc3ccncc3n2-c2ccc(Cl)cc2)[nH]1 [Example 126, 5-[1-(4-Chlorophenyl)-1H-pyrrolo[2,3-c]pyridin-2-yl]-2,4-dimethyl-1H-imidazole]	> 7.30	
Clc1ccc(-n2c(-c3cnc(N4CCOCC4)nc3)cc3ccncc32)cc1 [Example 127, 4-{5-[1-(4-Chlorophenyl)-1H-pyrrolo[2,3-c]pyridin-2-yl]pyrimidin-2-yl}morpholine]	> 7.30	
Cc1cc(N2CCOCC2)ncc1-c1cc2ccncc2n1-c1ccc(Cl)cc1 [Example 129, 4-{5-[1-(4-Chlorophenyl)-1H-pyrrolo[2,3-c]pyridin-2-yl]-4-methylpyridin-2-yl}morpholine; bis(trifluoroacetic acid)]	> 7.30	
Brc1ccc(-n2c(-c3cnc(N4CCOCC4)nc3)cc3ccncc32)cc1 [Example 133, 4-{5-[1-(4-Bromophenyl)-1H-pyrrolo[2,3-c]pyridin-2-yl]pyrimidin-2-yl}morpholine]	> 7.30	
Cn1nccc1-c1cc2ccncc2n1-c1ccc(Cl)cc1 [Example 134, 5-[1-(4-Chlorophenyl)-1H-pyrrolo[2,3-c]pyridin-2-yl]-1-methyl-1H-pyrazole]	> 7.30	

Further lines, with some results ahead:

pIC50 [2]	Compound	pIC50 [1]
> 7.30	Cn1cc(-c2cc3ccncc3n2-c2ccc(Cl)cc2)cn1 [Example 135, 4-[1-(4-Chlorophenyl)-1H-pyrrolo[2,3-c]pyridin-2-yl]-1-methyl-1H-pyrazole]	
> 7.30	CN(C)c1ncc(-c2cc3ccncc3n2-c2ccc(Cl)cc2)cn1 [Example 137, 5-[1-(4-Chlorophenyl)-1H-pyrrolo[2,3-c]pyridin-2-yl]-N,N-dimethylpyrimidin-2-amine; bis(trifluoroacetic acid)]	
> 7.30	O=c1cc(-c2cc3ccncc3n2-c2ccc(Cl)cc2)ccn1C1CC1 [Example 138, 4-[1-(4-Chlorophenyl)-1H-pyrrolo[2,3-c]pyridin-2-yl]-1-cyclopropyl-1,2-dihydropyridin-2-one]	
> 7.30	Clc1ccc(-n2c(-c3cnc(NC4CCOCC4)nc3)cc3ccncc32)cc1 [Example 139, 5-[1-(4-Chlorophenyl)-1H-pyrrolo[2,3-c]pyridin-2-yl]-N-(oxan-4-yl)pyrimidin-2-amine]	
> 7.30	Clc1ccc(-n2c(-c3ccc(CN4CCOCC4)nc3)cc3ccncc32)cc1 [Example 140, 4-({5-[1-(4-Chlorophenyl)-1H-pyrrolo[2,3-c]pyridin-2-yl]pyridin-2-yl}methyl)morpholine]	
> 7.30	Cn1ccc(-c2cc3ccncc3n2-c2ccc(Cl)cc2)cc1=O [Example 143, 4-[1-(4-Chlorophenyl)-1H-pyrrolo[2,3-c]pyridin-2-yl]-1-methyl-1,2-dihydropyridin-2-one]	
> 7.30	Cn1c(-c2cc3ccncc3n2-c2ccc(Cl)cc2)cccc1=O [Example 145, 6-[1-(4-Chlorophenyl)-1H-pyrrolo[2,3-c]pyridin-2-yl]-1-methyl-1,2-dihydropyridin-2-one]	
> 7.30	Nc1cc(-c2cc3ccncc3n2-c2ccc(Cl)cc2)ccn1 [Example 147, 4-[1-(4-Chlorophenyl)-1H-pyrrolo[2,3-c]pyridin-2-yl]pyridin-2-amine]	
> 7.30	Fc1cncc(-c2cc3ccncc3n2-c2ccc(Cl)cc2)c1 [Example 148, 3-[1-(4-Chlorophenyl)-1H-pyrrolo[2,3-c]pyridin-2-yl]-5-fluoropyridine]	
> 7.30	Clc1ccc(-n2c(-c3cnc(NCC4CC4)nc3)cc3ccncc32)cc1 [Example 149, 5-[1-(4-Chlorophenyl)-1H-pyrrolo[2,3-c]pyridin-2-yl]-N-(cyclopropylmethyl)pyrimidin-2-amine]	
> 7.30	Cc1cnccc1-c1cc2ccncc2n1-c1ccc(Cl)cc1 [Example 154, 4-[1-(4-Chlorophenyl)-1H-pyrrolo[2,3-c]pyridin-2-yl]-3-methylpyridine]	
5.92 to 6.70	O=c1cc(-c2cc3ccncc3n2-c2ccccc2)ccn1C1CC1 [Example 155, 1-Cyclopropyl-4-{1-phenyl-1H-pyrrolo[2,3-c]pyridin-2-yl}-1,2-dihydropyridin-2-one]	
